For 34 compounds, viability results are on record in article PMC11995724, “Antibiotic target discovery by integrated phenotypic and activity-based profiling of electrophilic fragments” (Cell chemical biology, 2025).

This series in a line: in vitro. To be noted: human, hek293t cells.
A word on the viability: it is a read-out of living cells in per cent, often relative to untreated cells. As to `N#CC(=Cc1ccco1)C(=O)Nc1cccc2ncccc12` [8-B20, 2-cyano-3-(furan-2-yl)-N-(quinolin-5-yl)prop-2-enamide], the viability at 48 h, 25 µM was found to be 85.9%. `N#CC(=Cc1cccnc1)C(=O)Nc1ccc(F)cc1` [8-B21, 2-cyano-N-(4-fluorophenyl)-3-(pyridin-3-yl)prop-2-enamide]: the viability at 48 h, 25 µM amounted to 125%. As for `N#CC(=Cc1cccc([N+](=O)[O-])c1)C(=O)NCc1ccccc1` [8-B22, N-benzyl-2-cyano-3-(3-nitrophenyl)prop-2-enamide], the viability at 48 h, 25 µM turned out to be 32%. Consider `COc1ccc(C=C(C#N)C(=O)Nc2ccc(Cl)c(Cl)c2)cc1` [8-C03, 2-cyano-N-(3,4-dichlorophenyl)-3-(4-methoxyphenyl)prop-2-enamide], for which the viability at 48 h, 25 µM came out at 99.6%. In the case of `N#CC(=Cc1ccc(N2CCCCC2)cc1)C(=O)Nc1nccs1` [8-C04, 2-cyano-3-[4-(piperidin-1-yl)phenyl]-N-(1,3-thiazol-2-yl)prop-2-enamide], the viability at 48 h, 25 µM was 97.1%. `COc1ccc(C=C(C#N)C(=O)Nc2ccc([N+](=O)[O-])cc2)cc1` [8-C05, 2-cyano-3-(4-methoxyphenyl)-N-(4-nitrophenyl)prop-2-enamide]: the viability at 48 h, 25 µM stood at 81.5%.

`N#CC(=Cc1ccc(-c2ccccc2)cc1)C(=O)NCc1ccccc1` [8-C06, N-benzyl-3-{[1,1'-biphenyl]-4-yl}-2-cyanoprop-2-enamide]: the viability at 48 h, 25 µM stood at 81.4%. Turning to `N#CC(=Cc1ccc(-c2cccc([N+](=O)[O-])c2)o1)C(=O)N1CCOCC1` [8-C07, 2-(morpholine-4-carbonyl)-3-[5-(3-nitrophenyl)furan-2-yl]prop-2-enenitrile], the viability at 48 h, 25 µM came out at 79.1%.

Take `CC(C)NC(=O)C(C#N)=Cc1cc(F)ccc1F` [8-C08, 2-cyano-3-(2,5-difluorophenyl)-N-(propan-2-yl)prop-2-enamide]: the viability at 48 h, 25 µM was 138%. With `COc1ccc(C=C(C#N)C(=O)NCc2ccccc2)cc1O` [8-C09, N-benzyl-2-cyano-3-(3-hydroxy-4-methoxyphenyl)prop-2-enamide] the figure was 66.6%; with `N#CC(=Cc1cc(F)ccc1F)C(=O)Nc1ccc(F)cc1F` [8-C10, 2-cyano-N-(2,4-difluorophenyl)-3-(2,5-difluorophenyl)prop-2-enamide], 91.2%; with `N#CC(=Cc1ccc(Cl)cc1)C(=O)Nc1nccs1` [8-C11, 3-(4-chlorophenyl)-2-cyano-N-(1,3-thiazol-2-yl)prop-2-enamide], 79%. With `CC(=O)Nc1ccc(NC(=O)C(C#N)=Cc2cc(F)ccc2F)cc1` [8-C12, 2-cyano-3-(2,5-difluorophenyl)-N-(4-acetamidophenyl)prop-2-enamide] the figure was 57.6%; with `N#CC(=Cc1ccccc1)C(=O)Nc1ccccc1F` [8-C13, 2-cyano-N-(2-fluorophenyl)-3-phenylprop-2-enamide], 69.6%. As for `Cc1ccc(C=C(C#N)C(=O)Nc2ccc(C(=O)O)cc2)o1` [8-C14, 4-[2-cyano-3-(5-methylfuran-2-yl)prop-2-enamido]benzoic acid], the viability at 48 h, 25 µM stood at 109%.

In the case of `N#CC(=Cc1ccccc1Cl)C(=O)Nc1cccc2ncccc12` [8-C15, 3-(2-chlorophenyl)-2-cyano-N-(quinolin-5-yl)prop-2-enamide], the viability at 48 h, 25 µM was determined as 51%. As to `COc1cccc(NC(=O)C(C#N)=Cc2ccc(C)cc2C)c1` [8-C16, 2-cyano-3-(2,4-dimethylphenyl)-N-(3-methoxyphenyl)prop-2-enamide], the viability at 48 h, 25 µM stood at 91.5%. With `C=CCNC(=O)C(C#N)=Cc1cc(C)n(-c2ccc(C)cc2)c1C` [8-C17, 2-cyano-3-[2,5-dimethyl-1-(4-methylphenyl)-1H-pyrrol-3-yl]-N-(prop-2-en-1-yl)prop-2-enamide], the viability at 48 h, 25 µM is 60.7%. On to `Cc1cccc(NC(=O)C(C#N)=Cc2cc(C)c(C)cc2C)c1` [8-C18, 2-cyano-N-(3-methylphenyl)-3-(2,4,5-trimethylphenyl)prop-2-enamide], for which the viability at 48 h, 25 µM was 92.9%. Regarding `CC1CCCC(NC(=O)C(C#N)=Cc2ccccc2)C1C` (stereo not shown) [8-C19, 2-cyano-N-(2,3-dimethylcyclohexyl)-3-phenylprop-2-enamide], the viability at 48 h, 25 µM came to 27.3%. Turning to `N#CC(=CN1CCN(c2ccccc2)CC1)C(=O)Nc1ccc(F)cc1` [8-C20, 2-cyano-N-(4-fluorophenyl)-3-(4-phenylpiperazin-1-yl)prop-2-enamide], the viability at 48 h, 25 µM stood at 72.5%.

Take `COc1ccc(C=C(C#N)C(=O)Nc2ccccc2Cl)cc1O` [8-C21, N-(2-chlorophenyl)-2-cyano-3-(3-hydroxy-4-methoxyphenyl)prop-2-enamide]: the viability at 48 h, 25 µM turned out to be 82.8%. With `N#CC(=Cc1cc2cc(F)ccc2o1)C(=O)NC(N)=O` [8-C22, {2-cyano-2-[(5-fluoro-1-benzofuran-2-yl)methylidene]acetyl}urea], the viability at 48 h, 25 µM worked out at 79.1%.

With `Cn1ccnc1Sc1ccc(C=C(C#N)C(N)=O)cc1[N+](=O)[O-]` [8-D03, 2-cyano-3-{4-[(1-methyl-1H-imidazol-2-yl)sulfanyl]-3-nitrophenyl}prop-2-enamide], the viability at 48 h, 25 µM was 135%.

Take `N#CC(=Cc1ccc(F)c([N+](=O)[O-])c1)C(=O)Nc1ccc(F)cc1` [8-D04, 2-cyano-3-(4-fluoro-3-nitrophenyl)-N-(4-fluorophenyl)prop-2-enamide]: the viability at 48 h, 25 µM was determined as 1.12%. For `C=CCNC(=O)C(C#N)=Cc1cccc(C)c1` [8-D05, 2-cyano-3-(3-methylphenyl)-N-(prop-2-en-1-yl)prop-2-enamide], the viability at 48 h, 25 µM turned out to be 102%.

Take `Cc1ccc(NC(=O)C(C#N)=Cc2cccc(Cl)c2Cl)cc1` [8-D06, 2-cyano-3-(2,3-dichlorophenyl)-N-(4-methylphenyl)prop-2-enamide]: the viability at 48 h, 25 µM came to 69.5%.

On to `N#CC(=Cc1cccc(Oc2ccccc2)c1)C(=O)NC(N)=O` [8-D07, {2-cyano-2-[(3-phenoxyphenyl)methylidene]acetyl}urea], for which the viability at 48 h, 25 µM turned out to be 134%. With `N#CC(=Cc1ccc([N+](=O)[O-])c(Cl)c1)C(=O)NCc1ccccc1` [8-D08, N-benzyl-3-(3-chloro-4-nitrophenyl)-2-cyanoprop-2-enamide] the figure was 1.37%; with `Cc1ccc(NC(=O)C(C#N)=Cc2ccc(C)s2)c(C)c1` [8-D09, 2-cyano-N-(2,4-dimethylphenyl)-3-(5-methylthiophen-2-yl)prop-2-enamide], 99.2%. For `Cc1ccccc1NC(=O)C(C#N)=Cc1cccnc1` [8-D10, 2-cyano-N-(2-methylphenyl)-3-(pyridin-3-yl)prop-2-enamide] the value was 95.5%. With `COc1ccc(NC(=O)C(C#N)=Cc2ccc(-c3ccccc3)cc2)cc1` [8-D11, 3-{[1,1'-biphenyl]-4-yl}-2-cyano-N-(4-methoxyphenyl)prop-2-enamide] the figure was 103%. `CC(=O)Nc1ccc(C=C(C#N)C(=O)NCc2ccccc2)cc1` [8-D12, N-benzyl-2-cyano-3-(4-acetamidophenyl)prop-2-enamide]: the viability at 48 h, 25 µM turned out to be 84.4%. For the compound `CC1=CSC(=C(C#N)C(=O)NCc2ccco2)N1c1ccccc1` [8-D13, 2-cyano-N-[(furan-2-yl)methyl]-2-(4-methyl-3-phenyl-2,3-dihydro-1,3-thiazol-2-ylidene)acetamide], the viability at 48 h, 25 µM came to 114%.
